Source: article PMC11089504 (Journal of medicinal chemistry, 2024)
“And” between values parts separate entries of the source, which are not always exact repeats. Equal values may be shown once.

Tests used:
A. castellanii CYP51 [1] = target: T1, A. castellanii CYP51 (Acanthamoeba castellanii, UniProt L8GJB3, V2A); conditions: full-length enzyme, type I spectral response
T1 sequence (L8GJB3 1-486 V2A): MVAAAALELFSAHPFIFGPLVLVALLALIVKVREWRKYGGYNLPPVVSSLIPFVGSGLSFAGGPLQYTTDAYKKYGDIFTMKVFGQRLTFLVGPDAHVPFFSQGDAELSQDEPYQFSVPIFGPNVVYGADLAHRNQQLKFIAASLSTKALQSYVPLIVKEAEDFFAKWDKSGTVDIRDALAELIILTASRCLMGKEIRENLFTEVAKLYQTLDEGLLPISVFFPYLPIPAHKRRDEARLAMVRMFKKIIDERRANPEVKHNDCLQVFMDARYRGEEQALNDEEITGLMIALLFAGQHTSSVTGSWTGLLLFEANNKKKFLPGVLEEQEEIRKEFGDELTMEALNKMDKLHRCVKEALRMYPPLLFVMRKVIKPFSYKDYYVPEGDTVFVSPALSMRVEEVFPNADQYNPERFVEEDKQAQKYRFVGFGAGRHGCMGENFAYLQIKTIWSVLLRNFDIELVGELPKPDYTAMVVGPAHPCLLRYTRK
T1 sequence (P00388 2-678 partner): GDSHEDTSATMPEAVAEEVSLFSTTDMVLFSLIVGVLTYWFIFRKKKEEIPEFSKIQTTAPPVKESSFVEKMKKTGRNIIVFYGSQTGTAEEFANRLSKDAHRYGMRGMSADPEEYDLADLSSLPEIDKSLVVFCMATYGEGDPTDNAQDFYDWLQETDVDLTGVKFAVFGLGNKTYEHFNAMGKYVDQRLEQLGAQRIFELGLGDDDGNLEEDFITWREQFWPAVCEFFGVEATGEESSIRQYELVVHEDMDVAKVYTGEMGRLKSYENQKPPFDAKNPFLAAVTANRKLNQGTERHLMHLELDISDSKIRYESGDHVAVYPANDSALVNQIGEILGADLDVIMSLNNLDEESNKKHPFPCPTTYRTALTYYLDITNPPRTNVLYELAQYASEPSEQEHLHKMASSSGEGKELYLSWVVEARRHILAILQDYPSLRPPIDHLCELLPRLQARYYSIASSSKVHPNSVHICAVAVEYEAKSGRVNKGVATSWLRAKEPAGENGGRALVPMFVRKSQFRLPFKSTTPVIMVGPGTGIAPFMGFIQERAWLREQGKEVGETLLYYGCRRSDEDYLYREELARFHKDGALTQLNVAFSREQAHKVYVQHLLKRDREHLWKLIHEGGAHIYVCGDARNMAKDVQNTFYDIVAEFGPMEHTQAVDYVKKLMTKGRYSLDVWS

T. cruzi CYP51 = conditions: 2-fold molar excess over the enzyme ref 61; cited from earlier work
human CYP51 = conditions: cited from earlier work
A. castellanii CYP51 [2] = target: T1, A. castellanii CYP51; conditions: obtusifoliol over lanosterol

| SMILES | low- to high-spin transition in the heme iron (A. castellanii CYP51 [1]) | inhibition of T. cruzi CYP51 (T. cruzi CYP51) | binding to human CYP51 (human CYP51) | fold higher catalytic efficiency than for lanosterol (substrate preference) (A. castellanii CYP51 [2]) |
| --- | --- | --- | --- | --- |
| CC(C)=CCC[C@@H](C)[C@H]1CC[C@@]2(C)C3=C(CC[C@]12C)[C@@]1(C)CC[C@H](O)C(C)(C)[C@@H]1CC3 [lanosterol] | ~15% | – | – | – |
| O[C@@](Cn1cnnn1)(c1ccc(F)cc1F)C(F)(F)c1ccc(-c2ccc(OCC(F)(F)F)cc2)cn1 [VT1161, (R)-2-(2,4-difluorophenyl)-1,1-difluoro-3-(lH-tetrazol-1-yl)-1-(5-(4-(2,2,2-trifluoroethoxy)phenyl)pyridin-2-yl)propan-2-ol] | – | ~ 95% | does not bind | – |
| C=C(CC[C@@H](C)[C@H]1CC[C@@]2(C)C3=C(CC[C@]12C)[C@@]1(C)CC[C@H](O)[C@@H](C)[C@@H]1CC3)C(C)C [obtusifoliol] | ~ 60% | – | – | ~ 100 fold and 100 fold |
